According to patent US10865387B2, “Methods of obtaining pancreatic endocrine cells” (The University Court of the University of Aberdeen, priority 2014, dated 2020):

Assays:
[1] = tested on: human exocrine enriched fraction (EEF); assay: RT-qPCR of hormone and transcription factor mRNA in reprogrammed exocrine cells; type: cell-based
Protocol: After 48 h the cells were incubated for another 72 h in serum free medium (SFM) prepared with RPMI 1640, insulin-transferrin-selenium (Gibco) and 1% bovine serum albumin (Sigma), supplemented with 10 μM SB431542, 2 μM Y27632, 1 μM 5-Aza-2′deoxycytidine and 10 mM sodium butyrate (all from Sigma). On the next day the cells were incubated for 4 h with the adenoviruses encoding pancreatic transcription factors. On the following day the medium was changed for SFM supplemented with 1 nM betacellulin (R&D systems, Abingdon, UK), 10 nM exendin-4 and 10 mM nicotinamide (both from Sigma). The medium was changed every two days for another 6 days before harvesting.
Recombinant adenoviruses encoding the mouse sequences of PDX1, MAFA, NGN3 and PAX4 (Swales et al., 2012) were prepared using the Ad-Easy™ system (Agilent Technologies, Edinburgh, UK). The adenoviruses containing PDX1 and NGN3 also expressed GFP through a downstream CMV promoter. Viral transduction was performed in SFM for 4 h at a multiplicity of infection (MOI) of 100 for each virus.
QRT/PCR was performed as previously described (Lima et al., 2012. Data were analysed using the 2^−ΔΔCT method. Statistical analysis was performed using PRISM software and the student's t-test or one-way ANOVA followed by the Dunnet's post-hoc test, as appropriate. The list of TaqMan probes are listed in Table 1:
Knockdown of Arx in transdifferentiating cells was performed by transfection with a pool of specific targeting small inhibitory RNAs, or scrambled controls (Dharmacon, Loughborough, UK). 100 nM siRNA was transfected on day 6 of the transdifferentiation protocol using Dharmafect 1 (Dharmacon), according to the manufacturer's instructions.
EEF cells were plated directly from the low purity fractions obtained following islet isolation. EEF cells were cultured as a monolayer for two days and then treated with SB, Y2, Aza and NaBu for 3 days. […]

[2] = tested on: human exocrine enriched fraction (EEF); assay: Insulin, C-peptide and glucagon content of cell lysates by ELISA; type: cell-based; conditions: reprogrammed (siARX) cells with ZnCl2 10 μM; FIG. 15
Description: FIG. 10. ARX inhibition enhances beta cell maturation and decreases alpha cell differentiation. (A) C-peptide release by untreated (N/A), transdifferentiated cells in the absence of siARX (REP), siARX transdifferentiated cells (siARX) and in the absence of PAX4 (siARX-PAX4). C-peptide was detected from the culture medium by a specific human C-peptide ELISA. Data are representative of triplicate experiments. (B) Insulin, C-peptide and Proinsulin content of untreated, transdifferentiated cells in the absence of siARX (REP), siARX transdifferentiated cells (siARX) and human islets. The content of each peptide was detected by specific human ELISAs after cell lysis and normalised to the total protein content. Data are representative of triplicate experiments. (C) Glucagon content of untreated, transdifferentiated cells in the absence of siARX (REP), siARX transdifferentiated cells (siARX) and human islets. Glucagon was detected by a specific human ELISA after cell lysis and normalised to the total protein content. Data are representative of triplicate experiments. […]
[…] were measured using a human glucagon Quantikine ELISA kit (R&D Systems, Abingdon, UK), a human C-peptide ELISA kit (Millipore, Livingston, UK), a human prosinsulin ELISA kit or a human insulin ELISA kit (both from Mercodia, Uppsala, Sweden). […]

[3] = cells reprogrammed (siARX) with ZnCl2 10 μM, FIG. 14

`[Cl-].[Cl-].[Zn+2]` [ZnCl2] was tested, and the insulin gene expression [1, 3] was “significant effect”, the “mRNA encoding PAX4” value [1, 3] was “increased levels” and the “insulin (C-peptide) protein content” value [2] was “stimulatory effect”.
With laminin the “efficiency of reprogramming (relative expression of insulin) on extracellular matrix” value ([1]; PDX1/MAFA/NGN3/PAX4 protocol, compared with fibronectin, poly-lysine, collagen type I and IV, FIG. 4) was “improves the efficiency of reprogramming”.
